Reference: US11166942B2 (PRAXIS BIOTECH LLC, priority 2018, dated 2021)
Where two headings read alike, the source gives them in different places.

Experiments:
[1] = tested on: Chinese hamster ovary (CHO) cells; test: Protein translation assay (puromycin labelling, CHO cells); format: cell-based; conditions: Cricetulus griseus, CHO, media alone = 100%
In short: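 CHO cells given compound 2 h at 1 μM (unstressed), or 1 h at 100 nM or 1 μM then co-treated with 300 nM Tg (stressed); 10 μg/ml puromycin pulse 30 min, anti-puromycin western blot with β-actin, densitometry. Normalized to media alone (100%) and, for stressed cells, Tg alone (0%).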

[2] = tested on: ATF4; test: ATF4 expression inhibition assay (immunoblot, Tg-stressed HEK293T cells); format: cell-based, human; conditions: 100 nM Tg, 3 hours, 0.1 nM to 10 μM compound (FIG. 6)
Method: HEK293T cells were maintained at 37° C. and 5% CO2 in Dulbecco's Modified Eagle's Media (DMEM) supplemented with 10% fetal bovine serum (FBS), 2 mM L-glutamine, 100 U/ml penicillin, and 100 μg/ml streptomycin. After reaching 80% of confluence, cells were detached and seeded on 6 well plates in complete media, allowed to recover overnight and treated for 3 hours with 100 nM thapsigargin (Tg) in the presence of various concentrations ranging from 0.1 nM to 10 μM. Cells without treatment (Veh) or cells treated with Tg alone were used as controls.
After 3 hours of treatment with Tg and the test compound, cells were lysed with SDS-PAGE lysis buffer. Lysates were transferred to 1.5 ml tubes and sonicated for 3 min, and total protein amounts were quantified using BCA Protein Assay Kit (Pierce). Equal amount of proteins was loaded on SDS-PAGE gels. Proteins were transferred onto […] PVDF membranes (BioRad) and probed with primary antibodies diluted in Tris-buffered saline supplemented with 0.1% Tween 20 and 3% bovine serum albumin.
ATF4 (11815) antibody (Cell Signaling Technologies) and β-actin (Sigma-Aldrich) antibodies were used as primary antibodies. […]

[3] = tested on: fasted Balb/c mice, quadriceps; test: Fasting-induced muscle atrophy; format: in vivo, mouse; conditions: 10 mg/kg oral
Method: Wild type eight-weeks-old male Balb/c mice obtained from the vivarium Fundación Ciencia & Vida Chile (Santiago, Chile) were used. Mice were housed in independent plastic cages in a room maintained at 25° C. with a 12-h:12-h light:dark cycle.
Twenty-four hours before and during the 2 days of fasted procedures, animals were weighed and receive oral administration via feeding tubes (15 gauge) of vehicle (50% Polyethylene glycol 400 (Sigma-Aldrich P3265) in distilled water or 10 mg/kg of test compound formulated in vehicle solution.
After 2 days of fasting the animals were weighed and sacrificed. Quadriceps were removed from both hindlimbs and weighed. Mice with feed and water ad libitum were used as control. […]
Upon collection, muscles were immediately frozen in liquid nitrogen and then stored at −80° C. […] Protein concentration in supernatants was determined using BCA Protein Assay Kit (Pierce). […]
Puromycin (12D10) (Merck Millipore) ATF4 (Abcam), Atrogin-1 (ECM Biosciences), MuRF-1 (Santa Cruz Biotechnology) and β-actin (Sigma-Aldrich) antibodies were used as primary antibodies. […] Quantification of protein bands was done by densitometry using ImageJ software. […]

For `O=C(NN1CCN(C[C@@H](O)COc2ccc(Cl)c(F)c2)CC1)c1ccc2cc(Cl)ccc2n1` [Compound 58, (R)-6-chloro-N-(4-(3-(4-chloro-3-fluorophenoxy)-2-hydroxypropyl)piperazin-1-yl)quinoline-2-carboxamide], the activity at 1 µM ([1]; 2 h, unstressed CHO cells, 1 μM, 2 hours, read-out: % Protein synthesis in unstressed cells (1 μM test compound)) was 164%, the activity at 1 µM ([1]; CHO cells stressed with 300 nM Tg, 1 μM compound, Tg alone = 0%, read-out: % Recovery of protein expression (1 μM test compound)) was 118% and the “ATF4 expression under Tg stress (immunoblot)” value [2] was “inhibits the expression of ATF4 under Tg treatment in a dose dependent manner”. The “ATF4 expression in quadriceps” value ([3]; vs vehicle-treated fasted mice (FIG. 8F)) was “reduction” and the “Atrogin-1 expression in quadriceps” value ([3]; vs vehicle-treated fasted mice (FIG. 8G)) was “reduction”.
